This is an account of results in ChEMBL document CHEMBL1125531, “Synthetic nonpsychotropic cannabinoids with potent antiinflammatory, analgesic, and leukocyte antiadhesion activities” (1992).

The term Inhibition denotes the change of the read-out against control, counted positive when it falls.

Values joined by “and” are separate entries in the source; they are usually repeats but may differ in a detail not shown here. Equal entries are not always repeated.

Format in all cases: functional
Test [1] relates to Mus musculus. Put plainly: Compound was evaluated for the percent inhibition of PAF-induced Paw edema at the dose 0.5 (mg/kg) (Increases in paw volume is 28 uL).
Test [2] relates to Mus musculus. Put plainly: Compound was evaluated for the antinociceptive effects at the dose 2.0(mg/kg).
Test [3] relates to Mus musculus. Nature of the test: Compound was evaluated for the percent inhibition of PAF-induced Paw edema at the dose 0.25 (mg/kg) (Increases in paw volume is 24 uL).
Test [4] concerns Mus musculus. Nature of the test: Compound was evaluated for the antinociceptive effects at the dose 0.5(mg/kg).
The subject of test [5] is Mus musculus. Put plainly: Compound was evaluated for the percent inhibition of PAF-induced Paw edema at the dose 0.1 (mg/kg) (Increases in paw volume is 38 uL).
Test [6] relates to Mus musculus. Put plainly: Compound was evaluated for the antinociceptive effects at the dose 1.0(mg/kg).
Test [7] deals with Mus musculus. Put plainly: Compound was evaluated for the antinociceptive effects at the dose 4.0(mg/kg).
Test [8] has as its system Mus musculus. Nature of the test: Compound was evaluated for the antinociceptive effects at the dose 0.25(mg/kg).
For test [9], the system named is Mus musculus. Nature of the test: Compound was evaluated for the effect on leukocyte adhesion at the dose 0.1 (mg/kg); oral administration.
Test [10] has as its system Mus musculus. Put plainly: Compound was evaluated for the percent inhibition of arachidonic acid-induced paw edema at the dose 0.5(mg/kg).
The subject of test [11] is Mus musculus. Nature of the test: Compound was evaluated for the percent inhibition of arachidonic acid-induced paw edema at the dose 0.05(mg/kg).
Test [12] relates to Mus musculus. Nature of the test: Compound was evaluated for the antinociceptive effects at the dose 0.1(mg/kg).
For test [13], the system named is Mus musculus. Put plainly: Compound was evaluated for the cataleptic effect in the mouse at the dose 1.0(mg/kg).
Test [14] relates to Mus musculus. Nature of the test: Compound was evaluated for the percent inhibition of PAF-induced Paw edema at the dose 0.05 (mg/kg) (Increases in paw volume is 10 uL).
For test [15], the system named is Mus musculus. Nature of the test: Compound was evaluated for the cataleptic effect in the mouse at the dose 0.5(mg/kg).
The test system of test [16] is Mus musculus. Put plainly: Compound was evaluated for the percent inhibition of PAF-induced Paw edema at the dose 0.1 (mg/kg) (Increases in paw volume is 19 uL).
Test [17] has as its system Mus musculus. Nature of the test: Compound was evaluated for the cataleptic effect in the mouse at the dose 0.25(mg/kg).
Test [18] has as its system Mus musculus. Nature of the test: Compound was evaluated for the percent inhibition of PAF-induced Paw edema at the dose 0.5 (mg/kg) (Increases in paw volume is 7.5 uL).
In test [19] the test system is Mus musculus. Nature of the test: Compound was evaluated for the percent inhibition of arachidonic acid-induced paw edema at the dose 0.1(mg/kg).
The test system of test [20] is Mus musculus. Put plainly: Compound was evaluated for the antinociceptive effects at the dose 0.025(mg/kg).
Test [21] relates to Mus musculus. Nature of the test: Compound was evaluated for the effect on leukocyte adhesion at the dose 0.05 (mg/kg); oral administration.
The subject of test [22] is Mus musculus. Nature of the test: Compound was evaluated for the cataleptic effect in the mouse at the dose 4.0(mg/kg).
Test [23] relates to Mus musculus. Put plainly: Compound was evaluated for the antinociceptive effects at the dose 0.05(mg/kg).
For test [24], the system named is Mus musculus. Put plainly: Compound was evaluated for the effect on leukocyte adhesion at the dose 1.0 (mg/kg); oral administration.
The subject of test [25] is Mus musculus. Nature of the test: Compound was evaluated for the effect on leukocyte adhesion at the dose 0.5 (mg/kg); oral administration.
The test system of test [26] is Mus musculus. Put plainly: Compound was evaluated for the percent inhibition of PAF-induced Paw edema at the dose 0.25 (mg/kg) (Increases in paw volume is 11 uL).
The subject of test [27] is Mus musculus. Nature of the test: Compound was evaluated for the effect on leukocyte adhesion at the dose 0.01 (mg/kg); oral administration.
Test [28] has as its system Mus musculus. Nature of the test: Compound was evaluated for the percent inhibition of arachidonic acid-induced paw edema at the dose 0.25(mg/kg).
In test [29] the test system is Mus musculus. Put plainly: Compound was evaluated for the percent inhibition of PAF-induced Paw edema at the dose 0.1 (mg/kg) (Increases in paw volume is -10 uL).
Test [30] deals with Mus musculus. Put plainly: Compound was evaluated for the percent inhibition of PAF-induced Paw edema at the dose 0.25 (mg/kg) (Increases in paw volume is -14 uL).
Test [31] has as its system Mus musculus. Nature of the test: Compound was evaluated for the percent inhibition of PAF-induced Paw edema at the dose 0.5 (mg/kg) (Increases in paw volume is -20 uL).
Test [32] concerns Mus musculus. Put plainly: Compound was evaluated for the cataleptic effect in the mouse at the dose 0.1(mg/kg).
Test [33] has as its system Mus musculus. Nature of the test: Compound was evaluated for the percent inhibition of PAF-induced Paw edema at the dose 0.05 (mg/kg) (Increases in paw volume is -1.2 uL).
For test [34], the system named is Mus musculus. Put plainly: Compound was evaluated for the cataleptic effect in the mouse at the dose 5.0(mg/kg).
Test [35] deals with Mus musculus. Nature of the test: Compound was evaluated for the effect on leukocyte adhesion at the dose 40 (mg/kg); oral administration.
Test [36] concerns Mus musculus. Nature of the test: Compound was evaluated for the effect on leukocyte adhesion at the dose 20 (mg/kg); oral administration.
Test [37] concerns Mus musculus. Nature of the test: Compound was evaluated for the cataleptic effect in the mouse at the dose 0.5 mg/kg.
In test [38] the test system is Mus musculus. Nature of the test: Compound was evaluated for the percent inhibition of PAF-induced Paw edema at the dose 1.0 (mg/kg) (Increases in paw volume is 28 uL).
Test [39] concerns Mus musculus. Put plainly: Compound was evaluated for the percent inhibition of PAF-induced Paw edema at the dose 0.5 (mg/kg) (Increases in paw volume is 44 uL).
In test [40] the test system is Mus musculus. Put plainly: Compound was evaluated for the effect on leukocyte adhesion at the dose 0.2 (mg/kg); oral administration.
Test [41] has as its system Mus musculus. Nature of the test: Compound was evaluated for the percent inhibition of PAF-induced Paw edema at the dose 0.5 (mg/kg) (Increases in paw volume is 30 uL).
The subject of test [42] is Mus musculus. Nature of the test: Compound was evaluated for the percent inhibition of PAF-induced Paw edema at the dose 1.0 (mg/kg) (Increases in paw volume is 14 uL).
Test [43] concerns Mus musculus. Put plainly: Compound was evaluated for the effect on leukocyte adhesion at the dose 0.5(mg/kg); oral administration.
In test [44] the test system is Mus musculus. Put plainly: Compound was evaluated for the cataleptic effect in the mouse at the dose 40 mg/kg.

`CCCCCCC(C)(C)c1cc(O)c2c(c1)OC(C)(C)C1CC=C(C(=O)OC)C[C@H]21` (some centres undefined): the Inhibition in test [1] was -7.5%; in [3] it was 7.6%; in test [5], -44.2%. Also, the Change is 37.5% in test [2]; 49% in test [4]; 61.4% in [6]; 3.1% in [7]; 10.4% in test [8].
`CCCCCCC(C)(C)c1cc(O)c2c(c1)OC(C)(C)C1CC=C(C(=O)O)C[C@H]21` (some centres undefined): the No. of cells was determined as 1.38 in test [9]; 1.29 in test [21]; 0.7 in [24]; 1.46 in test [25]; 1.34 in test [27]. The Inhibition in test [10] is on record as 47.4%; in [11] it was 42.1%; in [14], 44.4%; in test [16], 38.7%; in test [18] it was 60.1%; in test [19] it was 65.8%. The Inhibition in test [26] is on record as 31.9%; in [28] it was 52.6%. Moreover, the Change in test [12] is reported as 49.5%; in test [4], 51.7%; in [20], 10.3%; in test [6], 14.7%; in [8], 61.5%; in test [23], 61.7%. The Response was found to be 10.4 in test [13], 13.8 in test [15], 12.3 in [17] and 8.7 in test [22].
As for `CCCCCCC(C)(C)c1cc(O)c2c(c1)OC(C)(C)[C@@H]1CC=C(C(=O)OC)CC21` (some centres undefined), the Change is on record as 42.9% in [2] and -2.8% in [4]. The figures for the Inhibition in [16], in test [18] and in test [26] were 69.3%, 76% and 63.9%, respectively.
For the molecule `CCCCCCC(C)(C)c1cc(O)c2c(c1)OC(C)(C)[C@@H]1CC=C(C(=O)O)CC21` (some centres undefined), the No. of cells in [9] is given as 0.64; in test [21], 1.34; in test [24], 0.3; in test [25], 0.87; in [27], 0.88. In addition, the Inhibition in [29] was 135%; in test [10], 73.7% and 97.4% and 100%; in test [11], 26.3%; in test [30], 150%; in test [31] it was 171%; in [19], 52.6%. Further, the values for the Inhibition in test [33] and in [28] were 101% and 56.4%, respectively. Moreover, the Change is 68.3% in test [12]; 34% in test [4]; 20.8% in test [20]; 28.4% in test [6]; 33.4% in [8]; 85% in [23]. Moreover, the Response in test [13] was 12.2; in test [32], 5.8.
As for `CCCCCc1cc(O)c2c(c1)OC(C)(C)[C@H]1C(C(=O)O)CC(C)=CC21` (some centres undefined), the No. of cells in test [34] was 10.1; in test [35], 0.55; in [36] it was 0.67; in [37], 10.
With `CCCCCCC(C)(C)c1cc(O)c2c(c1)OC(C)(C)C1CC=C(CO)C[C@H]21` (some centres undefined), the No. of cells in test [9] is 0.44; in [21] it was 1.09; in test [24] it was 0.59; in test [25], 0.64. Besides, the Inhibition is 21.8% in [38] and -37.5% in test [39].
Take `CCCCCCC(C)(C)c1cc(O)c2c(c1)OC(C)(C)[C@@H]1CC=C(CO)CC21` (some centres undefined): the No. of cells in [9] was 0.94; in test [21], 1.12; in test [40], 0.58; in [43], 0.59. For the same molecule, the values for the Inhibition in test [41] and in test [42] were 6.3% and 56.3%, respectively.
In test [44], `CCCCCc1cc(O)c2c(c1)OC(C)(C)[C@@H]1CCC(C)=C[C@@H]21` [DRONABINOL] registered a Cataleptic effect of 48.9.
